We go through 7 molecules from patent publication US8580806B2, “Salts of 4-methyl N-[3-(4-methyl-imidazol-1-yl)-5-trifluoromethyl-phenyl]-3-(4-pyridin-3-yl-pyrimidin-2-ylamino)-benzamide” (Novartis AG, priority 2005, dated 2013).

Structures can show the parent of a compound that is named as a salt. Where two headings read alike, the source gives them in different places.

Data set [1] is described as follows: Decomposition temperature by TGA. It counts as physicochemical. The conditions noted are these: for decomposes at: as stated in the description of the embodiments; for Decomposition temperature: TGA, onset of the first derivative of sample weight loss v. temperature. The method, then:
The LOD and decomposition temperature of the salts of the invention were determined by TGA, and the melting point was determined by DSC.

The conditions of data set [2]: pH 3.0 buffer, ambient temperature, at least 20 hours.
Method: The solubility of the salts of the invention was determined in pH 6.8, pH 3.0 and pH 1.0 buffers by suspending 1-5 mg of each salt in 10 mL of corresponding aqueous solution. The samples were allowed to equilibrate at ambient temperature for at least 20 hours for pH 6.8 and 3.0 or about 5 hours for pH 1.0. The supernatant was filtered and used for the solubility determination by UV-VIS spectroscopy.
Data set [3] in a line: Hygroscopicity by TGA after one day at ambient temperature and 93% relative humidity. It counts as physicochemical. The settings on record: ambient temperature. The method, then: The hygroscopicity of the salts of the invention was determined by TGA after one day at ambient temperature and 93% relative humidity.

Turning to `Cc1cn(-c2cc(NC(=O)c3ccc(C)c(Nc4nccc(-c5cccnc5)n4)c3)cc(C(F)(F)F)c2)cn1.O=P(O)(O)O.O=P(O)(O)O` [diphosphate salt, diphosphate salt of 4-methyl-N-[3-(4-methyl-imidazol-1-yl)-5-trifluoromethyl-phenyl]-3-(4-pyridin-3-yl-pyrimidin-2-ylamino)-benzamide], in data set [1], the “decomposes at” value was “about 210 °C”.

The Solubility is the dissolved amount per volume that the medium holds. As to `Cc1cn(-c2cc(NC(=O)c3ccc(C)c(Nc4nccc(-c5cccnc5)n4)c3)cc(C(F)(F)F)c2)cn1.O=S(=O)(O)O` [Sulfate (form B), sulfate salt of 4-methyl-N-[3-(4-methyl-imidazol-1-yl)-5-trifluoromethyl-phenyl]-3-(4-pyridin-3-yl-pyrimidin-2-ylamino)-benzamide], the “Solubility at pH 3.0” value in data set [2] was 6.5 μg/mL. Further, the “% moisture gain” value in data set [3] was determined as 0.22%. In data set [1], the Decomposition temperature turned out to be 201 °C and the “decomposes at” value was “about 206 °C”.

In the case of `Cc1cn(-c2cc(NC(=O)c3ccc(C)c(Nc4nccc(-c5cccnc5)n4)c3)cc(C(F)(F)F)c2)cn1` [Methane sulfonate, 4-methyl-N-[3-(4-methyl-imidazol-1-yl)-5-trifluoromethyl-phenyl]-3-(4-pyridin-3-yl-pyrimidin-2-ylamino)-benzamide mesylate salt], the “Solubility at pH 3.0” value in data set [2] (listed as Methane sulfonate salt, mesylate salt) was 5.2 μg/mL. Moreover, in data set [3] (mesylate salt), the “% moisture gain” value was 0.22%. In addition, the Decomposition temperature in data set [1] (mesylate salt) was found to be 260 °C. Besides, the “decomposes at” value in data set [1] (listed as methane sulfonate (mesylate) salt, mesylate salt) was “about 260 °C”.

With `Cc1cn(-c2cc(NC(=O)c3ccc(C)c(Nc4nccc(-c5cccnc5)n4)c3)cc(C(F)(F)F)c2)cn1` [Monophosphate, 4-methyl-N-[3-(4-methyl-imidazol-1-yl)-5-trifluoromethyl-phenyl]-3-(4-pyridin-3-yl-pyrimidin-2-ylamino)-benzamide monophosphate salt], the “% moisture gain” value in data set [3] (monophosphate salt) was determined as 1.33%. In addition, in data set [1] (monophosphate salt), the Decomposition temperature turned out to be 212 °C and the “decomposes at” value was “about 212 °C”.

For the molecule `Cc1cn(-c2cc(NC(=O)c3ccc(C)c(Nc4nccc(-c5cccnc5)n4)c3)cc(C(F)(F)F)c2)cn1` [p-Toluene sulfonate, 4-methyl-N-[3-(4-methyl-imidazol-1-yl)-5-trifluoromethyl-phenyl]-3-(4-pyridin-3-yl-pyrimidin-2-ylamino)-benzamide p-toluene sulfonate salt], the “% moisture gain” value in data set [3] worked out at 1.02%. For the same molecule, in data set [1], the Decomposition temperature was found to be 256 °C and the “decomposes at” value was “about 256 °C”.

Regarding `CCS(=O)(=O)O.Cc1cn(-c2cc(NC(=O)c3ccc(C)c(Nc4nccc(-c5cccnc5)n4)c3)cc(C(F)(F)F)c2)cn1` [Ethane sulfonate, ethane sulfonate salt of 4-methyl-N-[3-(4-methyl-imidazol-1-yl)-5-trifluoromethyl-phenyl]-3-(4-pyridin-3-yl-pyrimidin-2-ylamino)-benzamide], the “Solubility at pH 3.0” value in data set [2] stood at 2.8 μg/mL. For the same molecule, the “% moisture gain” value in data set [3] is given as 1.11%. For the same molecule, in data set [1], the Decomposition temperature stood at 220 °C and the “decomposes at” value was “about 220 °C”.

With `Cc1cn(-c2cc(NC(=O)c3ccc(C)c(Nc4nccc(-c5cccnc5)n4)c3)cc(C(F)(F)F)c2)cn1` [Benzene sulfonate, 4-methyl-N-[3-(4-methyl-imidazol-1-yl)-5-trifluoromethyl-phenyl]-3-(4-pyridin-3-yl-pyrimidin-2-ylamino)-benzamide mono benzyl sulfonate salt], the “% moisture gain” value in data set [3] came out at 0.11%. For the same molecule, in data set [1], the Decomposition temperature was 260 °C. Also, the “decomposes at” value in data set [1] (listed as benzene sulfonate salt) is “about 260 °C”.
